Source: US20160038505A1, “METHODS AND COMPOSITIONS FOR TREATING IMPULSE CONTROL DISORDER, ANXIETY-RELATED DISORDERS, VIOLENCE AND/OR ANGER, OR REGULATING FOOD INTAKE” (priority 2014, published 2016)
“Also recorded” adds a separate entry of the source.

Key:
dogs = assay: Single dose (acute oral) toxicity/TK study in dogs; format: in vivo, dog
cynomolgus monkey = assay: Single dose toxicity in cynomolgus monkeys; format: in vivo; details: oral gavage
Method: The objective of the study was to determine the toxicity and toxicokinetic profile of noribogaine following oral (gavage) administration to the cynomolgus monkey. Each dose was followed by a 7 day washout period. Dosing was staggered by 45 minutes. On study day 15, one animal was administered 80 mg/kg and the other animal was administered 160 mg/kg. The test article was administered as follows in Table 1:
Parameters monitored on the study included: mortality, clinical signs and body weights. Blood samples were collected for TK evaluation. […] The single dose maximum tolerated dose (MTD) was determined to be greater than 160 mg/kg based on the parameters monitored during the study.

[1] = Plasma toxicokinetics in dogs, 14 day repeat dose study; format: in vivo, dog
Method: Noribogaine HCl was administered to groups of 4 male and 4 female dogs by single oral gavage daily for 14 days at doses of 0, 0.5, 1.0 and 5.0 mg/kg/day. An additional group of 4 male and 4 female dogs received either the vehicle control or 5.0 mg/kg/day for 14 days and were held for an additional 28 days after cessation of dosing to assess recovery from any potential drug-induced changes. The study was conducted under GLP guidelines and included comprehensive examinations of clinical signs, body weight, clinical pathology parameters, ophthalmologic examinations, ECG recordings and analyses of plasma for bioanalytical measurement of drug levels at appropriate intervals during the study. At the termination of the dosing phase and at the termination of the recovery phase, all dogs were subjected to a complete post-mortem examination including gross examination of major organs and histologic examination of an extensive list of tissues. Additional sections of brain were obtained from cerebrum, cerebellus, brain stem and spinal cord and examined histologically to evaluate potential effects on brain histopathology. In addition, these sections were examined with immunohistochemical stains for GFAP for evidence of gliosis and Calbindin for a more comprehensive examination of cerebellar Purkinje cells.

[2] = Human pharmacokinetic study, single oral tablet, fasting healthy volunteers (serum); format: in vivo; details: fasting, serum
Method: In double blind studies, fasting healthy volunteers (6 per cohort) were treated once orally with a tablet of noribogaine HCl. In escalating cohorts, the volunteers received 3 mg, 10 mg, 30 mg or 60 mg noribogaine.

[3] = test system: healthy, drug-free male volunteers; assay: Safety and tolerability of noribogaine in healthy humans; format: in vivo, human
Method: Safety and tolerability of noribogaine were tested in the group of volunteers from Example 9. […] Safety evaluations included clinical monitoring, recording of adverse events (AEs), safety laboratory tests, vital signs, ECG telemetry from −2 h to 6 h after dosing, and 12-lead electrocardiograms (ECGs) up to 216 hours post-dosing.

[4] = Pharmacokinetics of noribogaine in healthy male volunteers (plasma, urine, LCMSMS)
[5] = dog, plasma, po, female dogs, 5.0 mg/kg, D 14
[6] = 30 mg single oral dose, plasma, mean (SD), n = 6

## CC[C@H]1CC2C[C@H]3c4[nH]c5ccc(O)cc5c4CCN(C2)C13 [noribogaine]
dogs; 5 mg/kg
  findings at NOAEL dose: only transient reduction in food consumption in one dog
dogs; 10 mg/kg, from 20 minutes until 3 h 40 m post-dose
  clinical signs: Convulsions and other CNS-related clinical signs
dogs; 5 (n=2) or 10 (n=2) mg/kg oral
  mortality: no mortality occurred
Cynomolgus monkey
  single dose maximum tolerated dose (MTD): greater than 160 mg/kg
Cynomolgus monkey; doses up to and including 160 mg/kg
  mortality and clinical signs: No mortality or treatment related clinical signs
[1]; dog, plasma, po, female dogs, 0.5 mg/kg, D 1
  Cmax at 1 day of dosing: 25.3 ng/mL
[1]; dog, plasma, po, female dogs, 0.5 mg/kg, D 14
  Cmax at 14 day of dosing: 29.8 ng/mL
[1]; dog, plasma, po, female dogs, 1.0 mg/kg, D 1
  Cmax at 1 day of dosing: 68.5 ng/mL
[1]; dog, plasma, po, female dogs, 1.0 mg/kg, D 14
  Cmax at 14 day of dosing: 74.1 ng/mL
[1]; dog, plasma, po, female dogs, 5.0 mg/kg, D 1
  Cmax at 1 day of dosing: 691 ng/mL
[1]; [5]
  Cmax at 14 day of dosing: 683 ng/mL
  Tmax at 14 day of dosing: 0.6 h
[1]; female dogs, 0.5 mg/kg, D 1
  AUC0-24 h: 40.4 ng·h/mL
  AUC0-last: 31.5 ng·h/mL
  AUC0-∞: 44.9 ng·h/mL
  T1/2: 1.0 h
  Tmax: 0.5 h
[1]; female dogs, 0.5 mg/kg, D 14
  AUC0-24 h: 55.0 ng·h/mL
  AUC0-last: 35.4 ng·h/mL
  AUC0-∞: 45.7 ng·h/mL
  T1/2: 1.1 h
  Tmax: 1.0 h
[1]; female dogs, 1.0 mg/kg, D 1
  AUC0-24 h: 176.2 ng·h/mL
  AUC0-last: 148.9 ng·h/mL
  AUC0-∞: 165.3 ng·h/mL
  T1/2: 1.4 h
  Tmax: 0.8 h
[1]; female dogs, 1.0 mg/kg, D 14
  AUC0-24 h: 203.7 ng·h/mL
  AUC0-last: 169.0 ng·h/mL
  AUC0-∞: 197.0 ng·h/mL
  T1/2: 1.6 h
  Tmax: 0.5 h
[1]; female dogs, 5.0 mg/kg, D 1
  AUC0-24 h: 3367.9 ng·h/mL
  AUC0-last: 3367.9 ng·h/mL
  AUC0-∞: 3425.7 ng·h/mL
  T1/2: 4.3 h
[1]; female dogs, 5.0 mg/kg, D 14
  AUC0-24 h: 5951.2 ng·h/mL
  AUC0-last: 5951.2 ng·h/mL
  AUC0-∞: 6283.2 ng·h/mL
  T1/2: 5.7 h
[1]; male dogs, 0.5 mg/kg, D 1
  AUC0-24 h: 59.7 ng·h/mL
  AUC0-last: 46.6 ng·h/mL
  AUC0-∞: 67.8 ng·h/mL
  Cmax: 28.8 ng/mL
  T1/2: 1.3 h
  Tmax: 0.7 h
[1]; male dogs, 0.5 mg/kg, D 14
  AUC0-24 h: 64.5 ng·h/mL
  AUC0-last: 53.2 ng·h/mL
  AUC0-∞: 68.2 ng·h/mL
  Cmax: 29.4 ng/mL
  T1/2: 1.3 h
  Tmax: 0.7 h
[1]; male dogs, 1.0 mg/kg, D 1
  AUC0-24 h: 119.8 ng·h/mL
  AUC0-last: 102.5 ng·h/mL
  AUC0-∞: 120.8 ng·h/mL
  Cmax: 58.6 ng/mL
  T1/2: 1.2 h
  Tmax: 0.9 h
[1]; male dogs, 1.0 mg/kg, D 14
  AUC0-24 h: 210.4 ng·h/mL
  AUC0-last: 172.3 ng·h/mL
  AUC0-∞: 195.7 ng·h/mL
  Cmax: 67.6 ng/mL
  T1/2: 1.8 h
  Tmax: 0.8 h
[1]; male dogs, 5.0 mg/kg, D 1
  AUC0-24 h: 3515.0 ng·h/mL
  AUC0-last: 3515.0 ng·h/mL
  AUC0-∞: 3630.5 ng·h/mL
  Cmax: 693 ng/mL
  T1/2: 4.7 h
[1]; male dogs, 5.0 mg/kg, D 14
  AUC0-24 h: 6403.3 ng·h/mL
  AUC0-last: 6403.3 ng·h/mL
  AUC0-∞: 6961.4 ng·h/mL
  Cmax: 716 ng/mL
  T1/2: 6.5 h
  Tmax: 0.9 h
[2]; single dose of 3 mg
  mean AUC/24 hr: 3.1 ng/mL
  time after administration at which mean Cmax was observed: 1.9 h
[2]; single dose of 10 mg
  mean AUC/24 hr: 10.6 ng/mL
  time after administration at which mean Cmax was observed: 2.9 h
[2]; single dose of 30 mg
  mean AUC/24: 29.2 ng/mL
  time after administration at which mean Cmax was observed: 1.75 h
[2]; single dose of 60 mg
  mean AUC/24: 61 ng/mL
  time after administration at which mean Cmax was observed: 1.75 h
[3]; 3 mg
  adverse events, Mild: Dizziness; also recorded: Epistaxis; also recorded: Headache; also recorded: Back pain
  adverse events, Moderate: Headache
[3]; 3 mg dose group
  number of adverse events reported: five adverse events were reported by two subjects
[3]; 10 mg
  adverse events, Mild: Headache
[3]; 10 mg dose group, single subject
  number of adverse events reported: one adverse event
[3]; 30 mg
  adverse events, Mild: Headache
[3]; 30 mg dose group, single subject
  number of adverse events reported: one adverse event
[3]; 3-60 mg
  oximetry, capnography, respiratory rate: no changes in oximetry or capnography, or changes in respiratory rate
  vital signs and safety laboratory tests: no changes in vital signs or safety laboratory tests of note
[3]; 3-60 mg, at any time
  QTcF values: ≤ 500 ms
[3]; one subject dosed with 10 mg, 24 hours post-dosing
  single increase in QTcF: > 60 ms
[4]; 3 mg single oral dose, plasma, mean (SD), n = 6
  CL/F: 41.4 (7.0) L/h
[4]; 10 mg single oral dose, plasma, mean (SD), n = 6
  CL/F: 42.3 (12.0) L/h
[4]; [6]
  CL/F: 46.9 (16.4) L/h
  Tmax: 1.8 (0.6) hr
[4]; 60 mg single oral dose, plasma, mean (SD), n = 6
  CL/F: 34.0 (11.4) L/h
[4]; 3-60 mg
  dose dependence of Cmax and AUC: increased linearly with dose
[4]; across dose groups 3-60 mg
  mean half-life estimates: 28 to 50 h
  time of peak concentrations after oral dosing: 2 to 3 h
  volume of distribution: 1417 to 3086 L
